Assay results published in US8361970B2, “Growth factor binding molecules” (University of South Florida, priority 2000, dated 2013).
“And” between values parts separate entries of the source, which are not always exact repeats. Identical values can stand only once. Like-named read-outs stand apart in the source and are kept apart here.

Columns and labels:
Assay type in all cases: cell-based
[1] = test system: EGF-stimulated EGFR tyrosine phosphorylation and Erk1/Erk2 activation; assay: EGF-stimulated EGFR tyrosine phosphorylation and Erk1/Erk2 activation in NIH 3T3 cells overexpressing EGFR; conditions: GFB-111 at concentrations as high as 100 μM
Protocol: (§1) Starved NIII 3T3 cells (PDGF-BB and PDGF-AA), NIH 3T3 cells overexpressing either EGFR (EGF) or Flk-1 (VEGF) are pre-treated with the indicated concentrations of GFB-111 for 5 minutes before 10 minutes of stimulation with PDGF-BB (10 ng/ml), PDGF-AA (10 ng/ml), EGF (100 ng/ml) and VEGF (50 ng/ml). Cell lysates are run on SDS-PAGE gels, then transferred to nitrocellulose and Western blotted with anti-phosphotyrosine (4G 10) or anti-phosphorylated Erk1/Erk2 (New England Biolabs).

[2] = test system: PDGF-stimulated PDGFR tyrosine phosphorylation; assay: Inhibition of PDGF-stimulated PDGFR tyrosine phosphorylation in NIH 3T3 cells (anti-phosphotyrosine Western blot); conditions: 5 min pretreatment, PDGF 10 ng/ml 10 min, read-out: (IC50) Inhibition PDGFR-Y-P
Protocol: Starved NIH 3T3 cells are pretreated with various growth factor binding agents (0-100 μM) for 5 min before stimulation with PDGF (10 ng/mL) for 10 min. The cells are then harvested and lysed, and the proteins from the lysates separated by SDS-PAGE and immunoblotted with an anti-phosphotyrosine antibody (4G10: Upstate Biotechnology, Lake Placid, N.Y.). The phosphotyrosine PDGF receptor bands are scanned, and the concentrations of growth factor binding molecules that inhibited the ability of PDGF to stimulate PDGFR tyrosine phosphorylation by 50% are determined.
as §1
A novel series of protein surface binding agents are prepared that bind PDGF and disrupt its signaling function. The molecules are composed of a central calix[4] arene scaffold to which is attached four peptide loop domains (FIG. 1). The peptide loop component is based on a cyclic hexapeptide in which two residues are replaced by a 3-aminomethylbenzoate dipeptide mimetic containing a 5-amino substituent for attachment to the scaffold. The resulting molecules (as shown in Table 1) contain a functionalized and variable surface approximately 500 Å^2 in area. Several peptide loop sequences are synthesized (Table 1) to provide molecular surfaces with negatively and positively charged as well as hydrophobic regions designed to bind to complementary areas on the target growth factor. To identify PDGF binding molecules from this library, a cell-based screening assay is developed with NIH 3T3 cells to detect molecules capable of blocking PDGF-BB-induced tyrosine autophosphorylation of the PDGF receptor. The ability of the identified molecules to bind PDGF-BB and inhibit interaction with its receptor is then confirmed biochemically. Starved NIH 3T3 cells are pretreated for 5 min with the synthetic molecules prior to stimulation with PDGF for 10 min. The effects of the molecules on PDGF-stimulated receptor tyrosine phosphorylation are determined by the antiphosphotyrosine Western blotting as described in Table 1. […] GFB-111 has four-fold symmetry containing 4 identical peptide loops with negative and hydrophobic residues, GlyAspGlyTyr (GDGY) (SEQ ID NO. 6), that are designed to be complementary to the PDGF surface involved in binding to PDGFR. The area of PDGF-BB that binds PDGFR is composed primarily of positive and hydrophobic residues.
Starved NIH 3T3 cells are pretreated with the various GFBs (0-100 μM) for 5 min. prior to stimulation with PDGF (10 ng/ml) for 10 min. The cells are then harvested lysed and the proteins from the lysates are separated by SDS-PAGE and immunoblotted with an anti-phosphotyrosine antibody (4G10, Upstate Biotechnology, Lake Placid, N.Y.). The phosphotyrosine PDGF receptor bands are scanned and the concentrations of GFBs that inhibit the ability of PDGF to stimulate PDGFR tyrosine phosphorylation by 50% are determined. Data for each compound is representative of at least two independent experiments. FIG. 1 illustrates the structure of growth factor binders. GFBs are synthesized as described by Park, H. D. et al., Protein surface recognition by synthetic receptors: A route to novel sub-micromolar inhibitors for chymotrypsin. J. Am. Chem. Soc. 121, 8-13 (1999); and Hamuro, Y. et al., A calixarene with four peptide loops: An antibody mimic for recognition of protein surfaces. Angew. Chemie Int. Ed. Engl. 36, 2680-2683 (1997), each herein incorporated by reference in its respective entirety.

[3] = test system: PDGF-stimulated Erk1/Erk2 activation; assay: Inhibition of PDGF-stimulated activation of MAPK Erk1/Erk2 (p44/p42) in NIH 3T3 cells; conditions: NIH 3T3, PDGF stimulated
Protocol: as §1
(§2) In other experiments, starved NIH 3T3 cells (PDGF-AA, PDGF-BB, aFGF, bFGF), NIH 3T3 cells overexpressing EGFR. IGF-1R or Flk-1 and the human breast carcinoma SkBr3 that overexpresses ErbB2 (HRGβ) are pretreated with GFB-111 (100 μM) for 5 min before 10 min stimulation with the indicated growth factors at the concentrations shown above and aFGF (10 ng/ml), bFGF (50 ng/ml), IGF-1 (50 ng/ml) and HRGβ (10 ng/ml). Cell lysates are then immunoblotted with anti-phospho Erk1/Erk2 as described above.

[4] = test system: VEGF-stimulated Flk-1 tyrosine phosphorylation; assay: Inhibition of VEGF-stimulated Flk-1 tyrosine phosphorylation in Flk-1/3T3 cells; conditions: Flk-1/3T3, VEGF stimulated; read-out: (IC50) Inhibition Flk-1-Y-P
Protocol: as §1
(§3) In order to identify molecules that would bind vascular endothelial growth factor (VEGF), Flk-1/3T3 cell-based assay is used that relies on VEGF-stimulation of its receptor, Flk-1, tyrosine phosphorylation and subsequent MAP-kinase activation. The assay used herein identical to that used for PDGF, except that NIH 3T3 cells that overexpress Flk-1 are used. GFB-116, which has four identical loops with the sequence GKGK (SEQ ID NO. 10) is shown to be very potent and selective toward blocking the ability of VEGF to stimulate Flk-1 tyrosine phosphorylation and subsequent MAP-kinase activation as measured by phospho erk-1 and erk-2 also referred to in the Table as p42 and p44 (Table 4A). A preferred embodiment of the invention is a compound that binds to a vascular endothelial growth factor, of the general structure III (above) in which R is n-butyl, n-propyl, or benzyl, and X comprise covalently attached identical cyclic peptide loops wherein R1, R2, R3, and R4 are each amino acid side chains, as broadly defined above, that define a tetrapeptide sequence, wherein said tetrapeptide is covalently attached at the amino and carboxy termini of said tetrapeptide to 3-aminomethyl-5-aminobenzamide linking group, and wherein said tetrapeptide sequence is GKGK (SEQ ID NO. 10), GDGY (SEQ ID NO. 6), or functionally related derivatives thereof.

[5] = test system: VEGF-stimulated MAP kinase activation; assay: Inhibition of VEGF-stimulated MAP kinase (p42/p44, Erk2/Erk1) activation in Flk-1/3T3 cells; conditions: Flk-1/3T3, VEGF stimulated
Protocol: as §1, §2, §3

[6] = test system: IGF-1 stimulated IGF-1R tyrosine phosphorylation; assay: Inhibition of IGF-1 stimulated IGFR tyrosine phosphorylation in IGFR/3T3 cells; conditions: for % Inhibition at 100 μM IGF1R-Y-P: IGFR/3T3, IGF-1 stimulated
Protocol: (§4) The ability of the GFB library to block the ability of IGF-1 to stimulate the IFG-1 R tyrosine phosphorylation and MAP kinase activation is evaluated using the cell assay described above with IGF-1R/3T3 cells as target cell. […] A preferred embodiment of the invention is a compound that binds to an insulin-like growth factor-1, of the general structure III, wherein R is n-butyl, n-propyl, or benzyl, and X1, X2, X3, and X4 optionally comprise identical cyclic peptide loops of the general structure II, and wherein R1, R2, R3, and R4 are each amino acid side chains that define a tetrapeptide sequence, wherein said tetrapeptide is covalently attached at the amino and carboxy termini of said tetrapeptide to a 3-aminomethyl-5-aminobenzamide linking group.

[7] = test system: IGF-1 stimulated MAP kinase activation; assay: Inhibition of IGF-1 stimulated MAP kinase (p42/p44) activation in IGFR/3T3 cells; conditions: 100 μM; IGFR/3T3, IGF-1 stimulated
Protocol: as §2, §4

[8] = test system: aFGF-stimulated MAP kinase activation of p42 and p44; assay: Inhibition of aFGF stimulation of p42/p44 MAP kinase in NIH 3T3 cells; conditions: NIH 3T3
Protocol: as §2
The ability of growth factor binding agents in the library of growth factor binding agents to block an aFGF signal is measured by aFGF-stimulation of MAP kinase activation of p42 and p44 essentially as described above for VEGF. NIH 3T3 cells are used as the target cell. […] A preferred embodiment of the invention is a compound that binds to acidic fibroblast growth factor, of the general structure III, in which R is n-butyl, n-propyl, or benzyl, and X1, X2, X3, and X4 optionally comprise covalently attached cyclic peptide loops of the general structure II, wherein R1, R2, R3, and R4 are each amino acid side chains that define a tetrapeptide sequence, wherein said tetrapeptide is covalently attached at the amino and carboxy termini of said tetrapeptide to a 3-aminomethyl-5-aminobenzamide linking group, and wherein said tetrapeptide sequence is as given, for example, in Table 5.

[9] = head p42/Erk2 (p42 for GFB-132 to 137), read-out: (IC50) Inhibition p42/Erk2
[10] = read-out: (IC50) Inhibition p42
[11] = read-out: (IC50) Inhibition p44

IC50 [2]	IC50 [3, 9]	IC50 [4]	IC50 [5, 10]	IC50 [5, 11]	IC50 [3, 11]	Compound	Effect on EGF-stimulated EGFR tyrosine phosphorylation and Erk1/Erk2 activation [1]	% Inhibition at 100 μM IGF1R-Y-P [6]	% Inhibition at 100 μM p42 [7]	% Inhibition at 100 μM p44 [7]	Block of aFGF-stimulation of MAP kinase activation of p42 and p44 [8]	Blocking IGF-1 action ([6]; IGF-1R/3T3 cells)
–	–	–	–	–	–	CNc1cc2c(Nc3cccc(Br)c3)ncnc2cn1 [PD158780, reference compound]	blocks	–	–	–	–	–
29 µM	26 µM	< 10 µM	10 µM	10 µM	–	ADGD [GFB-112]	–	0.6%	−7.6%	30.4%	–	–
8 µM	33 µM	< 10 µM	< 10 µM	< 10 µM	–	GDDD [GFB-106]	–	–	–	–	very effective	–
1.9 µM	4.6 µM	–	–	–	–	GDDG [GFB-126]	–	51.7% and 51.0%	63.9% and 47.0%	71.2% and 79.2%	very effective	particularly effective
32 µM	> 50 µM	–	–	–	–	GDDG [GFB-127]	–	36.8% and 31.8%	38.4% and 27.2%	61.6% and 74.4%	very effective	–
2.4 µM	28 µM	< 10 µM	> 100 µM	> 100 µM	–	GDFD [GFB-105]	–	1.3%	–	–	–	–
0.8 µM	3.2 µM	–	–	–	3 µM	GDGY [GFB-133]	–	–	–	–	very effective	–
2.8 µM	30 µM	< 10 µM	10 µM	10 µM	–	GDSD [GFB-113]	–	−18.9%	−31.4%	18.7%	–	–
